Data: US11090319B2, “Therapeutic uses of pharmaceutical compositions comprising cyclic boronic acid ester derivatives” (Melinta Subsidiary Corp., priority 2010, dated 2021)
Read-outs that look alike come from different tables or passages of the source.

What was measured:
[1] = target: various β-lactamases (bacterial lysates) (Escherichia coli, UniProt Q53TY8); experiment: Inhibition of nitrocefin cleavage by bacterial lysates, Table 11; format: biochemical; details: lysate EC1010 pAmpC (CMY-6), read-out: NCF IC50 EC1010 pAmpC (CMY-6)
[2] = target: DHA-1, lysate of EC1014 (Escherichia coli, UniProt Q84AE0); experiment: Inhibition of ceftazidime hydrolysis by bacterial lysate; details: read-out: IC50 of inhibition of Ceftazidime hydrolysis; EC1014 DHA-1
[3] = target: SHV-18, lysate of KP1012 (Klebsiella pneumoniae, UniProt P0AD64, E235K/G234A/R39S); experiment: as above
[4] = target: CTX-M-14, lysate of KP1005 (Escherichia coli, UniProt Q9L5C7); experiment: as above
[5] = target: CTX-M-15, lysate of KP1009 (Escherichia coli, UniProt Q9EXV5); experiment: as above
[6] = target: KPC-2, lysate of KP1008 (Klebsiella pneumoniae, UniProt Q9F663); experiment: as above
[7] = test system: ECL1004 Enterobacter cloacae NMC-A; experiment: Checkerboard assay, biapenem potentiation; details: Biapenem MIC 8-fold; ECL1004 NMC-A class A
[8] = target: SHV-12, lysate of KP1010 (Klebsiella pneumoniae, UniProt P0AD64, E235K/G234S/L31Q); experiment: Inhibition of ceftazidime hydrolysis by bacterial lysate
[9] = target: SME-2, lysate of SM1000 (Serratia marcescens, UniProt P52682); experiment: Inhibition of biapenem hydrolysis by bacterial lysate; details: read-out: IC50 of inhibition of biapenem hydrolysis; SM1000 SME-2
[10] = target: KPC-2, lysate of KP1004 (Klebsiella pneumoniae, UniProt Q9F663); experiment: Inhibition of ceftazidime hydrolysis by bacterial lysate
[11] = test system: KP1014 Klebsiella pneumoniae Vim-1; experiment: Ceftazidime MIC with fixed concentration of BLI; format: cell-based; details: derivative at 10 μg/mL; KP1014 Vim-1
Description: (§1) Next, ceftazidime potentiation activity of several cyclic boronic acid ester derivatives was tested using a larger panel of strains expressing β-lactamase hydrolyzing enzymes. Ceftazidime MICs were determined alone and in the presence of fixed concentrations of various cyclic boronic acid ester derivatives.

[12] = test system: EC1008 Escherichia coli CTX-M3; experiment: Ceftazidime MIC with fixed concentration of BLI; format: cell-based; details: derivative at 10 μg/mL
Description: as §1

[13] = test system: SA1000 Salmonella CMY-2; experiment: Ceftazidime MIC with fixed concentration of BLI; format: cell-based; details: derivative at 10 μg/mL; SA1000 CMY-2
Description: as §1

[14] = test system: ECL1003 Enterobacter cloacae Hyper AmpC expression; experiment: Ceftazidime MIC with fixed concentration of BLI; format: cell-based; details: derivative at 10 μg/mL
Description: as §1

[15] = test system: KP1013 Klebsiella pneumoniae CMY-2; experiment: Ceftazidime MIC with fixed concentration of BLI; format: cell-based; details: derivative at 10 μg/mL; KP1013 CMY-2
Description: as §1

[16] = test system: AB1052 Acinetobacter baumannii OXA-24; experiment: Ceftazidime MIC with fixed concentration of BLI; format: cell-based; details: derivative at 10 μg/mL; AB1052 OXA-24
Description: as §1

[17] = test system: CF1001 Citrobacter freundii Hyper AmpC expression; experiment: Ceftazidime MIC with fixed concentration of BLI; format: cell-based; details: derivative at 10 μg/mL
Description: as §1

[18] = test system: EC1016 Escherichia coli FOX-5; experiment: Ceftazidime MIC with fixed concentration of BLI; format: cell-based; details: derivative at 10 μg/mL; EC1016 FOX-5
Description: as §1

[19] = test system: KP1012 Klebsiella pneumoniae SHV-18; experiment: Ceftazidime MIC with fixed concentration of BLI; format: cell-based; details: derivative at 10 μg/mL; KP1012 SHV-18
Description: as §1

[20] = test system: KP1006 Klebsiella pneumoniae CTX-M2; experiment: Ceftazidime MIC with fixed concentration of BLI; format: cell-based; details: derivative at 10 μg/mL
Description: as §1

[21] = target: OXA-2, lysate of KX1000 (Salmonella typhimurium, UniProt P0A1V8); experiment: Inhibition of ceftazidime hydrolysis by bacterial lysate
[22] = test system: AB1052 Acinetobacter baumannii OXA-24; experiment: Checkerboard assay, biapenem potentiation; details: Biapenem MIC 8-fold; AB1052 OXA-24 class D
[23] = target: various β-lactamases (bacterial lysates) (Pseudomonas aeruginosa, UniProt P14489); experiment: biochemical; format: biochemical; details: AZT IC50 KP1007 OXA-10
[24] = target: various β-lactamases (bacterial lysates) (Escherichia coli, UniProt A0A5R8T042); experiment: biochemical; format: biochemical; details: read-out: AZT IC50 KP1009 CTX-M-15
[25] = target: various β-lactamases (bacterial lysates) (Klebsiella pneumoniae, UniProt Q9F663); experiment: biochemical; format: biochemical; details: aztreonam cleavage
[26] = target: various β-lactamases (bacterial lysates) (Klebsiella pneumoniae, UniProt Q9F663, H272Y); experiment: biochemical; format: biochemical
[27] = target: various β-lactamases (bacterial lysates) (Escherichia coli, UniProt A0A649V088); experiment: biochemical; format: biochemical; details: read-out: AZT IC50 KP1005 CTX-M-14
[28] = target: various β-lactamases (bacterial lysates) (Salmonella typhimurium, UniProt P0A1V8); experiment: biochemical; format: biochemical; details: AZT IC50 KPX1001 OXA-2
various β-lactamases (bacterial lysates) (Salmonella typhimurium, UniProt P0A1V8), sequence (P0A1V8 22-275): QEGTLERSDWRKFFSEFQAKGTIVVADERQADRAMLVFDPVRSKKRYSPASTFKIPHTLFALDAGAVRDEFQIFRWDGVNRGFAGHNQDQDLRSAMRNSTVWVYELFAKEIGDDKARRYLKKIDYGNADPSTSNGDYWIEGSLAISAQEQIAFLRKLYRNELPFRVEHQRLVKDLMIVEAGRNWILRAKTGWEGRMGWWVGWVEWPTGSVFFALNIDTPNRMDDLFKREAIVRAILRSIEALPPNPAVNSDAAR

various β-lactamases (bacterial lysates) (Klebsiella pneumoniae, UniProt Q9F663), sequence (Q9F663 whole entry, looked up): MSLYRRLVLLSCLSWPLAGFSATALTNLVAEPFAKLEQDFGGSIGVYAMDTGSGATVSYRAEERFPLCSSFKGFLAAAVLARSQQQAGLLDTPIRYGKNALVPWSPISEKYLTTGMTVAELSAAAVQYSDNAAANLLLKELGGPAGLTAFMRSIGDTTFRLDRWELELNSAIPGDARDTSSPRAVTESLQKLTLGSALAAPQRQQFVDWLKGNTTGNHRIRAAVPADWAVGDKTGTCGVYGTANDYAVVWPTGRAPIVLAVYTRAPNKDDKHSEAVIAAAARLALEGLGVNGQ
SME-2, lysate of SM1000, sequence (P52682 28-294 limits assumed): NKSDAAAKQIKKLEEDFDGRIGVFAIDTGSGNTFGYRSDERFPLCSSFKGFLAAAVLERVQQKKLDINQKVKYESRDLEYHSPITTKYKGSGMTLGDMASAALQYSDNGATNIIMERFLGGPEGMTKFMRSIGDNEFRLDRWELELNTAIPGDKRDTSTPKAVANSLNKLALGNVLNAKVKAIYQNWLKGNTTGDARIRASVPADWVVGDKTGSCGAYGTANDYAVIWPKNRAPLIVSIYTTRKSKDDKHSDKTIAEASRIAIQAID
CTX-M-14, lysate of KP1005, sequence (Q9L5C7 entry or part of it): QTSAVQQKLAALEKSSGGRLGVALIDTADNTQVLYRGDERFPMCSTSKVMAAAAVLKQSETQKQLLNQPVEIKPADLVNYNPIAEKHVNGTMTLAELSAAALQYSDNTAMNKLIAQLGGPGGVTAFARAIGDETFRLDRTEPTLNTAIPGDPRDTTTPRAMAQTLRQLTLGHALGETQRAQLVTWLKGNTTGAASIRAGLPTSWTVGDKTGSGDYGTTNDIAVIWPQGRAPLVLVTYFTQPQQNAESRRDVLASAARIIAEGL
various β-lactamases (bacterial lysates) (Escherichia coli, UniProt A0A649V088), sequence (A0A649V088 29-291): as the sequence (Q9L5C7 entry or part of it) above
various β-lactamases (bacterial lysates) (Klebsiella pneumoniae, UniProt Q9F663, H272Y), sequence (Q9F663 whole entry H272Y, looked up): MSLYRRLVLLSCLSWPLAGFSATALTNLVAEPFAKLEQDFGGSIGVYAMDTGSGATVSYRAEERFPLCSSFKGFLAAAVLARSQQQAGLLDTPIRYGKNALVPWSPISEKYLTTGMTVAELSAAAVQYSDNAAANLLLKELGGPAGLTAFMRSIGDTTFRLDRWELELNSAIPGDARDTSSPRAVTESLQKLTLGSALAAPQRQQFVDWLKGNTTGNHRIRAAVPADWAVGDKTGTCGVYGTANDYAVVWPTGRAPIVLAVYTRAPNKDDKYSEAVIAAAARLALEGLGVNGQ
OXA-2, lysate of KX1000, sequence (P0A1V8 22-275): as the sequence (P0A1V8 22-275) above
SHV-18, lysate of KP1012, sequence (P0AD64 22-286 R39S/G234A/E235K): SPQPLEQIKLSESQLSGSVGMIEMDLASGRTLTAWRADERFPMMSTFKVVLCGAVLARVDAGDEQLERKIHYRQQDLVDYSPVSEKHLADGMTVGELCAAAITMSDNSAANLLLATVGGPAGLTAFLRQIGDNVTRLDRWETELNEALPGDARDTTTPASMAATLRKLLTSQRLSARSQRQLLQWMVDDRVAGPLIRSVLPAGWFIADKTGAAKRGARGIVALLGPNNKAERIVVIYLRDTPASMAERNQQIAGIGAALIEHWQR
various β-lactamases (bacterial lysates) (Escherichia coli, UniProt Q53TY8), sequence (Q53TY8 entry or part of it): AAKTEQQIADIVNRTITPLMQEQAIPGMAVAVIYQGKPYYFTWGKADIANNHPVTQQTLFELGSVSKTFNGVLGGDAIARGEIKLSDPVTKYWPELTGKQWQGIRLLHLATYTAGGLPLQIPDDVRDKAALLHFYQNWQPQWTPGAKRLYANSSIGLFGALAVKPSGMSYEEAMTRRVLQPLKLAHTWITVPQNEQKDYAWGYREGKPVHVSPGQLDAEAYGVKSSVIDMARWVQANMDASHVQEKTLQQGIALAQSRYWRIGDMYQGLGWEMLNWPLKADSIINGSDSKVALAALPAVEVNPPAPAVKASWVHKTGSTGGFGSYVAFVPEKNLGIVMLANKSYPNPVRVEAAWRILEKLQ
SHV-12, lysate of KP1010, sequence (P0AD64 22-286 L31Q/G234S/E235K): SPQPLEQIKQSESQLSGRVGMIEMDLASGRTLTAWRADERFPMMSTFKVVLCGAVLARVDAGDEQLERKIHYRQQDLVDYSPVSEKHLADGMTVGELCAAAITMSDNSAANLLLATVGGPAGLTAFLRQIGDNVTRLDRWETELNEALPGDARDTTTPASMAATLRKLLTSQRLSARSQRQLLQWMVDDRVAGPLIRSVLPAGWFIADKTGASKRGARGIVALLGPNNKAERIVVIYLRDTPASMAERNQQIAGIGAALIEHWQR
various β-lactamases (bacterial lysates) (Escherichia coli, UniProt A0A5R8T042), sequence (A0A5R8T042 29-291): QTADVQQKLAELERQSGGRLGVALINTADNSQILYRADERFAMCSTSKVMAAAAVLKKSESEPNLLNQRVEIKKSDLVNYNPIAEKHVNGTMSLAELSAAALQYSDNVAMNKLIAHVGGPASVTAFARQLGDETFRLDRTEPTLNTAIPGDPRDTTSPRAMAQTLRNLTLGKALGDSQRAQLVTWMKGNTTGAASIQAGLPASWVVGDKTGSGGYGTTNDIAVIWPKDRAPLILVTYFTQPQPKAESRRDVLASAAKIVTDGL
CTX-M-15, lysate of KP1009, sequence (Q9EXV5 entry or part of it): as the sequence (A0A5R8T042 29-291) above
various β-lactamases (bacterial lysates) (Pseudomonas aeruginosa, UniProt P14489), sequence (P14489 20-266): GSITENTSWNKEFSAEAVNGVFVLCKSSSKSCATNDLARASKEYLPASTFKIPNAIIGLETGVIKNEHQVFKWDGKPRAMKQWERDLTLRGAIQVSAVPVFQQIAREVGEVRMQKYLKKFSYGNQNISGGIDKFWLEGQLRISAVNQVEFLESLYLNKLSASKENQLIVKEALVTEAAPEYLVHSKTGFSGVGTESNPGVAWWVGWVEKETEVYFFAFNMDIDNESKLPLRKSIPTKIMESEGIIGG
KPC-2, lysate of KP1008, sequence (Q9F663 25-293 limits assumed): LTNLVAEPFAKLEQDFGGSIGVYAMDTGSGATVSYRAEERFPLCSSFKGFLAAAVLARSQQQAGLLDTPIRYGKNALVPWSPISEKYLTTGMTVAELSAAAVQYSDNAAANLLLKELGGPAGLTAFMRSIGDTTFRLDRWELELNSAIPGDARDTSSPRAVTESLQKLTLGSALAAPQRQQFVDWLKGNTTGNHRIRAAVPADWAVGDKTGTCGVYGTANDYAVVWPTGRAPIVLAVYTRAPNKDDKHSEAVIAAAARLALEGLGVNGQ
KPC-2, lysate of KP1004, sequence (Q9F663 25-293 limits assumed): as above

O=C(O)CC1CC[C@H](NC(=O)C2CC2)B(O)O1 (stereo partly drawn) [Compound 4, 2-((3R)-3-(cyclopropanecarboxamido)-2-hydroxy-1,2-oxaborinan-6-yl)acetic acid]
IC50 [1]: > 8.3 µM
IC50 [2]: > 4.15 µM
IC50 [3]: > 4.15 µM
IC50 [4]: > 4.15 µM
IC50 [5]: > 4.15 µM
IC50 [6]: < 0.415 µM
MPC8 [7]: X (MPC8 of less than 0.16 μg/mL)
IC50 [8]: > 4.15 µM
IC50 [9]: 0.415 to 4.15 µM
IC50 [10]: < 0.415 µM
Ceftazidime MIC with cyclic boronic acid ester derivative [11]: Z (MIC of greater than 8 μg/mL)
Ceftazidime MIC with cyclic boronic acid ester derivative [12]: Y (MIC of greater than 1 μg/mL to 8 μg/mL)
Ceftazidime MIC with cyclic boronic acid ester derivative [13]: Y (MIC of greater than 1 μg/mL to 8 μg/mL)
Ceftazidime MIC with cyclic boronic acid ester derivative [14]: Z (MIC of greater than 8 μg/mL)
Ceftazidime MIC with cyclic boronic acid ester derivative [15]: Y (MIC of greater than 1 μg/mL to 8 μg/mL)
Ceftazidime MIC with cyclic boronic acid ester derivative [16]: Z (MIC of greater than 8 μg/mL)
Ceftazidime MIC with cyclic boronic acid ester derivative [17]: Z (MIC of greater than 8 μg/mL)
Ceftazidime MIC with cyclic boronic acid ester derivative [18]: Z (MIC of greater than 8 μg/mL)
Ceftazidime MIC with cyclic boronic acid ester derivative [19]: Z (MIC of greater than 8 μg/mL)
Ceftazidime MIC with cyclic boronic acid ester derivative [20]: X (MIC of 1 μg/mL or less)
IC50 [21]: > 4.15 µM
MPC8 [22]: Z (MPC8 of greater than 1 μg/mL)
IC50 [23]: > 8.3 µM
IC50 [24]: 2.07 to 8.3 µM
IC50 ([25]; lysate KP1004 KPC-2, read-out: AZT IC50 KP1004 KPC-2 (converted)): < 2.07 µM
IC50 ([25]; lysate KP1008 KPC-2, read-out: AZT IC50 KP1008 KPC-2): < 2.07 µM
IC50 [26]: < 2.07 µM
IC50 [27]: < 2.07 µM
IC50 [28]: > 8.3 µM
